Earlier results, collected in patent US7459223B2, “Electrochemical methods for generation of a biological proton motive force” (Board of Trustees of Michigan State University, priority 1998, dated 2008).
Where two headings read alike, the source gives them in different places.

Conditions: cited from earlier work

| Molecule | E0′ (redox potential) (Table 1, redox mediators) [V] | E0′ (redox potential) [volt] |
| --- | --- | --- |
| Menaquinone | −0.074 | −0.073 |
| NC(=O)c1ccc[n+]([C@@H]2O[C@H](COP(=O)(O)OP(=O)(O)OC[C@H]3O[C@@H](n4cnc5c(N)ncnc54)[C@H](O)[C@@H]3O)[C@@H](O)[C@H]2O)c1 [NAD^+] | −0.32 | – |
